In patent EP2505659A1, “Methods for the identification of dioxygenase interacting molecules and for the purification of dioxygenase proteins” (CELLZOME AG, priority 2011, dated 2012):
Counter-ions that a name gives are not always drawn. Like-named read-outs stand apart in the source and are kept apart here.

Columns and labels:
Experiment in all cases: Bead competition binding assay, immobilized compound A, K-562, HL-60 and Jurkat nuclear lysates
Conditions in all cases: 100 µM free compound A, read-out: Fold change versus DMSO control
TMLHE = target: T1, TMLHE (Homo sapiens, UniProt Q9NVH6)
T1 construct: capturing and identification of dioxygenases from nuclear lysates of three different cell lines; endogenous in cells; host or cells: K-562, HL-60 and Jurkat nuclear lysates
T1 sequence (Q9NVH6 16-421): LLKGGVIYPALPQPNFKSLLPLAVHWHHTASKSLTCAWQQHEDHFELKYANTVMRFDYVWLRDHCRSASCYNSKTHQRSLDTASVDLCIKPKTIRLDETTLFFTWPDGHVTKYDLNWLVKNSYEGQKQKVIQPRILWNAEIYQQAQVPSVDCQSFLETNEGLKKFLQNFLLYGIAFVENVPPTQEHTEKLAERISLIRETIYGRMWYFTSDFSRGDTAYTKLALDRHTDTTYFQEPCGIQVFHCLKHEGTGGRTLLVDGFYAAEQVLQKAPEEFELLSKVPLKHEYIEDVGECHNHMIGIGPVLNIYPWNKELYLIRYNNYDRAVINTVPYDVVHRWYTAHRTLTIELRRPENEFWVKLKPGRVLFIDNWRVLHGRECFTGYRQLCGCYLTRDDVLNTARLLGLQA
From the text: (§1) K562 cells were also purchased from DSMZ (Braunschweig, Germany).
(§2) Table 5: Peptide elution off the LC system
(§3) Seventeen different dioxygenases were identified.

P4HA2 = target: T2, P4HA2 (Homo sapiens, UniProt O15460)
T2 construct: capturing and identification of dioxygenases from nuclear lysates of three different cell lines; endogenous in cells; host or cells: K-562, HL-60 and Jurkat nuclear lysates
From the text: as §1, §2, §3

EGLN2 = target: T3, EGLN2 (Homo sapiens, UniProt Q96KS0)
T3 construct: capturing and identification of dioxygenases from nuclear lysates of three different cell lines; endogenous in cells; host or cells: K-562, HL-60 and Jurkat nuclear lysates
From the text: as §1, §2, §3

LEPRE1 = target: T4, LEPRE1 (Homo sapiens, UniProt Q32P28)
T4 construct: capturing and identification of dioxygenases from nuclear protein extracts; endogenous in cells
T4 sequence (Q32P28 23-736): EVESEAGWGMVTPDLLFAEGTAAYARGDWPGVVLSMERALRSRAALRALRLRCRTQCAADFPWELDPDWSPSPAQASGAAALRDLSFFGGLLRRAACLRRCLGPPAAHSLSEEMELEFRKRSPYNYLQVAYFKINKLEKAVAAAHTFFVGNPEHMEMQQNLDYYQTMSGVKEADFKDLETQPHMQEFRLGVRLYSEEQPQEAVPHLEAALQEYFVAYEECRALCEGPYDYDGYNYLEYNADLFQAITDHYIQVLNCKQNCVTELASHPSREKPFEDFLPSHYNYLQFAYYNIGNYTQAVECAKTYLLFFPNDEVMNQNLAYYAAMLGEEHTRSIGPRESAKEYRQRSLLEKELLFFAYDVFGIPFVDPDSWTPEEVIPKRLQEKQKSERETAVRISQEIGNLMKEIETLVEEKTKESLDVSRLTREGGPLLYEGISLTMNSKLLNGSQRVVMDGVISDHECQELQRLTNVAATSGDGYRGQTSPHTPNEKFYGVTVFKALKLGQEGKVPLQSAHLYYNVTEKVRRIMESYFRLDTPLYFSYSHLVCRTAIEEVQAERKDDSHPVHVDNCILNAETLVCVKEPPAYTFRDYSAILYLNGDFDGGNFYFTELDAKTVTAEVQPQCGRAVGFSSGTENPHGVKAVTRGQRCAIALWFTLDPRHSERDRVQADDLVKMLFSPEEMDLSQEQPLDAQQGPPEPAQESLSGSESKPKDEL
From the text: as §1, §2, §3

T2 sequence (O15460 22-535): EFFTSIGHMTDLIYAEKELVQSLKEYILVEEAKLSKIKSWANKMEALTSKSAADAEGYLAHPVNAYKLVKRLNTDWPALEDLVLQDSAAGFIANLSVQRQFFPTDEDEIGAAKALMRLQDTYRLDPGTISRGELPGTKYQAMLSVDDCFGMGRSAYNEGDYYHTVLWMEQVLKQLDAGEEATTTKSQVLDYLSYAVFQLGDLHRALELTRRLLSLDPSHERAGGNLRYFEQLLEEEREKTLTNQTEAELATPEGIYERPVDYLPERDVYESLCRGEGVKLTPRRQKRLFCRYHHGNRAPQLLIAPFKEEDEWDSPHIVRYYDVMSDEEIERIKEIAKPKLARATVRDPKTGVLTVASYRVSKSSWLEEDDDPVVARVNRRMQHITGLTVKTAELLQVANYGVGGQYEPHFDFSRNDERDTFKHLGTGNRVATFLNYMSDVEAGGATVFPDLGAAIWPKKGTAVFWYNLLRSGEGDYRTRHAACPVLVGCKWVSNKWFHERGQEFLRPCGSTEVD
T2 sequence (P07237 18-508 partner): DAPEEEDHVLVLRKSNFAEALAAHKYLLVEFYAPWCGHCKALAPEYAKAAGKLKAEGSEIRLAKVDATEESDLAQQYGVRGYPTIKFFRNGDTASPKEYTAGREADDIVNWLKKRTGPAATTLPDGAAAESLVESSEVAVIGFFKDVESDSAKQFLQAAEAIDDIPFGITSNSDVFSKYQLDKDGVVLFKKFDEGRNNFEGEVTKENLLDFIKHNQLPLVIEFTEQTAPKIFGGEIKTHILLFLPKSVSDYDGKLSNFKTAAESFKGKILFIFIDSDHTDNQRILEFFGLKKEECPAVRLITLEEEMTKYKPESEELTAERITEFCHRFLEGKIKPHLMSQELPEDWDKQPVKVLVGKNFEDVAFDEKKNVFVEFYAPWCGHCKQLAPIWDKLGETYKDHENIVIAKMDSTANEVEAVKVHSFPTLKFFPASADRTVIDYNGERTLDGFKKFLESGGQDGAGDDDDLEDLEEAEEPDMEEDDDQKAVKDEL
T3 sequence (Q96KS0 whole entry): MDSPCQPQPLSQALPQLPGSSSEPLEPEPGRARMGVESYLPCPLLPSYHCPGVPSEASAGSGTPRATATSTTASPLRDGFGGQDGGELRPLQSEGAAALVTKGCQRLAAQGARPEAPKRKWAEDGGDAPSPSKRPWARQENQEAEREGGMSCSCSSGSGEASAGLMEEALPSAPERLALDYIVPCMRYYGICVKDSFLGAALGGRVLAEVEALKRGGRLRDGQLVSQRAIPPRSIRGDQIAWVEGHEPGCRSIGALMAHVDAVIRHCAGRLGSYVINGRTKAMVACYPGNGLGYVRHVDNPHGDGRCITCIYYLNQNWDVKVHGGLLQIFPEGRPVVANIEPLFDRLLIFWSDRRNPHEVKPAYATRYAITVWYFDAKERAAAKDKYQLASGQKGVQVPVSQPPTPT

O=C(O)CNC(=O)C1C(=O)OC2(CCNCC2)OC1=O [compound A, 2-(2,4-dioxo-1,5-dioxa-9-azaspiro[5.5]undecane-3-carboxamido)acetic acid hydrochloride]
remaining binding at 100 µM (TMLHE; HL-60 nuclear lysate): 104%
remaining binding at 100 µM (TMLHE; Jurkat nuclear lysate): 49%
remaining binding at 100 µM (TMLHE; K-562 nuclear lysate): 50%
remaining binding at 100 µM (P4HA2; HL-60 nuclear lysate): 279%
remaining binding at 100 µM (P4HA2; Jurkat nuclear lysate): 136%
remaining binding at 100 µM (P4HA2; K-562 nuclear lysate): 28%
remaining binding at 100 µM (EGLN2; HL-60 nuclear lysate): 124%
remaining binding at 100 µM (EGLN2; Jurkat nuclear lysate): 123%
remaining binding at 100 µM (EGLN2; K-562 nuclear lysate): 75%
remaining binding at 100 µM (LEPRE1; HL-60 nuclear lysate): 126%
remaining binding at 100 µM (LEPRE1; Jurkat nuclear lysate): 90%
remaining binding at 100 µM (LEPRE1; K-562 nuclear lysate): 100%
